Laboratory results: patent US20180116990A1, “COMPOSITION OF BIOACTIVE LIPIDS AND METHODS OF USE THEREOF” (UND Life Sciences, LLC, priority 2016, published 2018)
Where two headings read alike, the source gives them in different places.

B1: BDNF: brain-derived neurotropic factor (BDNF), a neurotrophin (protein, UniProt P23560 19-247, looked up)
Neurotrophic factor BDNF …: APMKEANIRGQGGLAYPGVRTHGTLESVNGPKAGSRGLTSLADTFEHVIEELLDEDQKVRPNEENNKDADLYTSRVMLSSQVPLEPPLLFLLEEYKNYLDAANMSMRVRRHSDPARRGELSVCDSISEWVTAADKKTAVDMSGGTVTVLEKVPVSKGQLKQYFYETKCNPMGYTKEGCRGIDKRHWNSQCRTTQSYVRALTMDSKKRIGWRFIRIDTSCVCTLTIKRGR

Assays:
[1] = system: neovascularization; conditions: retina; literature; cited from earlier work
[2] = system: VEGF-induced angiogenesis; experiment: effect of bioactive lipids on angiogenesis induced by VEGF in vitro (FIG. 10); format: cell-based; conditions: positive test control taken as 100%
Experimental: C=Control; T=positive test control taken as 100%; RSv=Resolvin E1; PRt=Protectin D1; MaR=Maresin; L+R+P+M=LXA4=resolvin D1+Protectin D1+Maresin in 1:1:1:1 ratio.
(§1) In another study, this was similar to the study given in Examples 5 and 6, except that in this instance different bioactive lipids singly and in combination were tested in combination with or without anti-VEGF antibody. Thus, in this study, experimental animals received LXA4, resolvin E1, resolvin D1, protectin D1, maresin 1 or a combination of LXA4+resolvin E1+protectin D1+maresin 1 (in the ratio of 1:1:1:1)±anti-VEGF antibody were given with appropriate control groups. In this study, dose of bioactive lipids used was 5 ng, 10 ng, 15 ng, 20 ng, 50 ng, 100 ng, 200 ng, 500 ng, 1 μg, 5 μg, or 25.0 μg once in 4 weeks for 3 months. […] A summary of the results obtained with bioactive lipids on angiogenesis (FIG. 10) in vitro; on STZ-induced cytotoxicity to vascular endothelial cells (FIG. 11); on LPS-induced IL-6 and TNF-α secretion by human macrophages in vitro (FIG. 12); on PGE2 and VEGF secretion by LPS stimulated ARPE cells in vitro (FIG. 13); leukocyte migration and adherence to endothelial cells in vitro (FIG. 14); and BDNF secretion by ARPE cells stimulated by LPS (FIG. 15) are given in respective figures.

[3] = system: vascular endothelial cells; experiment: STZ-induced cytotoxic action on vascular endothelial cells in vitro (FIG. 11); format: cell-based; conditions: STZ cytotoxicity taken as 100%
Experimental: C=Control; STZ=Streptozotocin-induced cytotoxicity taken as positive control taken as 100%; RSv=Resolvin E1; PRt=Protectin D1; MaR=Maresin; L+R+P+M=LXA4=resolvin D1+Protectin D1+Maresin in 1:1:1:1 ratio.
as §1

[4] = system: human macrophage cells; experiment: production of IL-6 and TNF-α by human macrophage cells stimulated with LPS in vitro (FIG. 12); format: cell-based; conditions: LPS stimulated increase taken as 100%
Experimental: C=Control; LPS stimulated increase in IL-6 and TNF-α production taken as 100%; RSv=Resolvin E1; PRt=Protectin D1; MaR=Maresin; L+R+P+M=LXA4=resolvin D1+Protectin D1+Maresin in 1:1:1:1 ratio.
as §1

[5] = system: adult human retinal pigment epithelial cells, ARPE 19 cells; experiment: production of PGE2 and VEGF by ARPE 19 cells exposed to LPS (FIG. 13); format: cell-based; conditions: LPS positive control taken as 100%
Experimental: C=Control; LPS=Positive control taken as 100%; RSv=Resolvin E1; PRt=Protectin D1; MaR=Maresin; L+R+P+M=LXA4=resolvin D1+Protectin D1+Maresin in 1:1:1:1 ratio.
as §1

[6] = system: leukocyte migration and adherence; experiment: leukocyte migration and adherence stimulated by LPS in vitro (FIG. 14); format: cell-based; conditions: LPS positive control taken as 100%
Experimental: C=Control; LPS=positive control taken as 100%; RSv=Resolvin E1; PRt=Protectin D1; MaR=Maresin; L+R+P+M=LXA4=resolvin D1+Protectin D1+Maresin in 1:1:1:1 ratio.
as §1

[7] = system: experimental animals with DR, AMD, DME, retinopathy of prematurity; experiment: intravitreal injection in experimental animals with DR, AMD, DME, retinopathy of prematurity (Examples 5-7, FIG. 16); format: in vivo; conditions: for regression of DR, AMD, DME, retinopathy of prematurity: all doses
Excerpt: The degree of DR in control is taken as 100% which received only the vehicle. All bioactive lipids are able to suppress/reverse/arrest DR to a significant degree. […] Similar results were obtained with AMD, DME and retinopathy of prematurity. AVA=Anti-VEGF antibody; LRPM=Lipoxin A4+resolvin+protectin+maresin; AVA+LRPM=Anti-VEGF antibody+Lipoxin A4+resolvin+protectin+maresin.
[…] with DR, AMD, DME, retinopathy of prematurity (each group consisting of 10 animals: total 40 animals) were treated by direct intravitreal injection of LXA4 free acid form of composition according the examples 1-4 in doses ranging from 10.0 μg/day once in a week for 4 weeks.
In another study, this was similar to the study given in Example 5, except that in this instance different bioactive lipids singly and in combination were tested. Thus, in this study, experimental animals received LXA4, resolvin E1, resolvin D1, protectin D1, maresin 1 or a combination of LXA4+resolvin E1+protectin D1+maresin 1 (in the ratio of 1:1:1:1) were given with appropriate control groups. In this study, different doses of bioactive lipids were used either 5 ng, 10 ng, 15 ng, 20 ng, 50 ng, 100 ng, 200 ng, 500 ng, 1 μg, 5 μg or ranging from 10.0 μg to 100.0 μg per week for 4 weeks; once in 4 weeks for 3 months.
as §1

[8] = effect of ethanol and albumin on stability of LXA4 in solution in vitro (Example 8, FIGS. 17-18); format: physicochemical
Experimental: C=Control (100%); Concentration of LXA4 used in the test system is 10 μg to which different concentrations of albumin is added and after a specific period of incubation the concentration of LXA4 present in the solution is tested. It is seen that when the % of albumin exceeded 0.01%, the stability of LXA4 is decreased. […] The test system used: LXA4 is dissolved in 0.01% ethanol (pH 7.4) at 37° C. to which different concentrations of albumin is added and at the end of incubation time the concentration of LXA4 present is tested to know whether albumin would influence the stability of LXA4 in the solution.
Concentration of LXA4 tested 100 ng. […] C=Control (100%) (expected). Various doses of albumin were added to LXA4 solution in saline/PBS/ethanol and the stability of LXA4 was tested at the end of different periods of incubation in days. Results were best when ethanol concentration in the solution is between 0.01 to 0.0001% and albumin concentration is between 0.01 to 0.0001%.
The effect of albumin as an exemplary stabilizing agent in compositions of bioactive lipids was tested as follows: To 250 ng of LXA4 dissolved in a solution of saline/PBS with or without 0.01% ethanol was added different concentrations of albumin and after a specific period of incubation the concentration of LXA4 present in the solution was tested.

[9] = production of other bioactive lipids (observation)
Excerpt: Thus, one bioactive lipid enhances the production and action of other bioactive lipids. In a surprise observation, inventor noted that LXA4 and other bioactive lipids function as autocrine factors enhancing their own production.

[10] = system: experimental animals with DR, AMD, DME, retinopathy of prematurity; experiment: intravitreal injection in experimental animals with DR, AMD, DME, retinopathy of prematurity (Examples 5-7, FIG. 16); format: in vivo; conditions: Example 5; 5 ng to 100.0 μg per week for 4 weeks; once in 4 weeks for 3 months; all doses tested
[11] = system: ARPE 19 cells; conditions: LPS induced ARPE 19 cells, cited from earlier work
[12] = system: adult human retinal pigment epithelial cells, ARPE 19 cells; experiment: production of BDNF by ARPE 19 cells exposed to LPS (FIG. 15); format: cell-based; conditions: saline control taken as 100%
Experimental: C=Saline control taken as 100%; LPS=LPS-induced decrease in BDNF production; RSv=Resolvin E1; PRt=Protectin D1; MaR=Maresin; L+R+P+M=LXA4=resolvin D1+Protectin D1+Maresin in 1:1:1:1 ratio.
as §1

[13] = Example 6, lipids singly and in combination, 5 ng to 100.0 μg per week for 4 weeks, once in 4 weeks for 3 months
[14] = Example 7, with or without anti-VEGF antibody, 5 ng to 25.0 μg once in 4 weeks for 3 months

Row | Molecule | protection against neovascularization [1] | regression of DR, AMD, DME, retinopathy of prematurity [7, 13] | regression of DR, AMD, DME, retinopathy of prematurity [7, 14] | production of BDNF [12] | other results
1 | CC/C=C\C[C@H](O)\C=C/C=C/C=C/[C@H](O)C/C=C\C/C=C\CCC(=O)O [Neuroprotectin D1, reference compound] | protected against neovascularization | – | – | – | –
2 | CCCCC[C@H](O)/C=C/C=C\C=C\C=C\[C@@H](O)[C@@H](O)CCCC(=O)O [LXA4, lipoxin A4] | – | substantial regression | substantial regression | – | suppression of VEGF-induced angiogenesis [2]: most effective; cytoprotective action against STZ-induced cytotoxic action [3]: most effective; production of IL-6 and TNF-α [4]: most effective; production of PGE2 and VEGF [5]: most potent; leukocyte migration and adherence [6]: most potent; reduction in the degree of DR, AMD, DME, and retinopathy of prematurity ([7]; Example 5, direct intravitreal injection, 10.0 μg/day once in a week for 4 weeks, all 40 animals): significant reduction; stability of LXA4 ([8]; Example 8, 250 ng LXA4 in saline/PBS, albumin between 0.01 to 0.0001% compared to LXA4 concentration): optimum; stability of LXA4 ([8]; Example 8, ratio LXA4/albumin 0.01% to 0.0001%, in the presence of 0.01% ethanol): more stable; stability of LXA4 ([8]; FIG. 17, albumin between 0.01% to 0.001%, LXA4 10 μg in 0.01% ethanol, pH 7.4, 37° C.): stable and active; stability of LXA4 ([8]; FIG. 17, albumin exceeded 0.01%, LXA4 10 μg in 0.01% ethanol, pH 7.4, 37° C.): decreased; stability of LXA4 at different times ([8]; FIG. 18, LXA4 100 ng in saline/PBS/ethanol, ethanol 0.01 to 0.0001% and albumin 0.01 to 0.0001%, incubation in days): best; production of other bioactive lipids such as resolvins, protectins and maresins [9]: enhanced; regression of DR, AMD, DME, retinopathy of prematurity [10]: substantial regression; IL-6 levels ([11]; 10 nmol/L, p=0.036): decreased
3 | CC/C=C\C[C@H](O)\C=C/C=C/C=C/[C@H](O)C/C=C\C/C=C\CCC(=O)O [Protectin D1, protectin D1] | – | substantial regression | substantial regression | more potent than LXA4 | –
4 | CC[C@@H](O)/C=C/C=C\C[C@@H](O)/C=C/C=C/C=C\[C@@H](O)CCCC(=O)O [Resolvin E1, resolvin E1] | protected against neovascularization | substantial regression | substantial regression | more potent than LXA4 | –
5 | CC/C=C\C/C=C\C[C@H](O)\C=C/C=C/C=C/[C@H](O)C/C=C\CCC(=O)O [Maresin, maresin 1] | – | substantial regression | substantial regression | more potent than LXA4 | –
6 | CC/C=C\C[C@H](O)/C=C/C=C\C=C\C=C\[C@@H](O)[C@@H](O)C/C=C\CCC(=O)O [resolvin D1] | protected against neovascularization | substantial regression | substantial regression | – | –
7 | B1 | – | – | – | – | IL-6 levels ([11]; 500 pg, p=0.0002): decreased
